Drawing on patent US20100029619A1, “FUSED HETEROCYCLIC COMPOUND” (TAKEDA PHARMACEUTICAL COMPANY LIMTED, priority 2006, published 2010), this text covers melting point for 38 molecules.

One may read the melting point as the temperature of the solid-liquid transition.

Molecule `CC(C)(CCC#N)c1ccc(C(=O)Nc2cn3c4c(ccc3n2)OCC4)cc1` [Example 441, 4-(3-cyano-1,1-dimethylpropyl)-N-(1,2-dihydrofuro[2,3-e]imidazo[1,2-a]pyridin-7-yl)benzamide] registered a melting point of 227 to 228 °C. Molecule `CC(C)(C)c1ccc(C(=O)Nc2cn3nc(NCCc4ccncc4)ccc3n2)cc1` [Example 162, 4-tert-butyl-N-{6-[(2-pyridin-4-ylethyl)amino]imidazo[1,2-b]pyridazin-2-yl}benzamide] displayed a melting point of 279 °C. As for `CCC(=O)NCC(C)(C)c1ccc(C(=O)Nc2cn3cc(Cl)ccc3n2)cc1` [Example 126, N-(6-chloroimidazo[1,2-a]pyridin-2-yl)-4-[1,1-dimethyl-2-(propionylamino)ethyl]benzamide], the figure is 225 to 227 °C. As to `CCc1nc(C)cn1-c1ccc2nc(NC(=O)c3ccc(C(C)(C)C)cc3)cn2n1` [Example 144, 4-tert-butyl-N-[6-(2-ethyl-4-methyl-1H-imidazol-1-yl)imidazo[1,2-b]pyridazin-2-yl]benzamide], the melting point lay in the range of 220 to 221 °C. The molecule `CC(C)(C)c1ccc(C(=O)Nc2cn3cc(C(F)(F)F)ccc3n2)cc1` [Example 452, 4-tert-butyl-N-[6-(trifluoromethyl)imidazo[1,2-a]pyridin-2-yl]benzamide] showed a melting point of 234 to 235 °C. Consider `CNCCNc1ccc2nc(NC(=O)c3ccc(C(C)(C)C)cc3)cn2n1` [Example 172, 4-tert-butyl-N-(6-{[2-(methylamino)ethyl]amino}imidazo[1,2-b]pyridazin-2-yl)benzamide], for which the melting point is 200 to 201 °C. The molecule `CCOC(=O)CCC(C)(C)c1ccc(C(=O)Nc2cn3cc(C)ccc3n2)cc1` [Example 21, ethyl 4-methyl-4-{4-[(6-methylimidazo[1,2-a]pyridin-2-yl)carbamoyl]phenyl}pentanoate] had a melting point of 152 to 154 °C.

Regarding `CC(C)(C)c1ccc(C(=O)Nc2cn3nc(NC4CCNC4)ccc3n2)cc1` (centres unmarked) [Example 170, 4-tert-butyl-N-{6-[(pyrrolidin-3-yl)amino]imidazo[1,2-b]pyridazin-2-yl}benzamide], the melting point was in the range of 264 to 265 °C. Consider `Cc1cccc2nc(NC(=O)c3ccc(C4(C(=O)O)CCC4)cc3)cn12` [Example 188, 1-{4-[(5-methylimidazo[1,2-a]pyridin-2-yl)carbamoyl]phenyl}cyclobutanecarboxylic acid], for which the melting point was determined as 272 °C. On to `CC(C)(C)c1ccc(C(=O)Nc2cn3cc(-c4cccs4)ccc3n2)cc1` [Example 107, 4-tert-butyl-N-[6-(2-thienyl)imidazo[1,2-a]pyridin-2-yl]benzamide], for which the melting point lay in the range of 273 to 275 °C. With `CC(C)(C)c1ccc(C(=O)Nc2cn3nc(-c4cnn(CCO)c4)ccc3n2)cc1` [Example 178, 4-tert-butyl-N-{6-[1-(2-hydroxyethyl)-1H-pyrazol-4-yl]imidazo[1,2-b]pyridazin-2-yl}benzamide] the figure was 226 to 229 °C; with `Cc1cccc2nc(NC(=O)c3ccc(C(C)(C)C(=O)O)cc3)cn12` [Example 186, 2-methyl-2-{4-[(5-methylimidazo[1,2-a]pyridin-2-yl)carbamoyl]phenyl}propanoic acid], 282 to 283 °C; with `CC(=O)c1ccc2nc(NC(=O)c3ccc(C(C)(C)C)cc3)cn2n1` [Example 151, N-(6-acetylimidazo[1,2-b]pyridazin-2-yl)-4-tert-butylbenzamide], 237 to 238 °C. On to `Cc1ccc2nc(NC(=O)c3ccc(C(C)(C)CCc4nnn[nH]4)cc3)cn2c1` [Example 439, 4-[1,1-dimethyl-3-(1H-tetrazol-5-yl)propyl]-N-(6-methylimidazo[1,2-a]pyridin-2-yl)benzamide], for which the melting point is 245 to 246 °C. As to `O=C(Nc1cn2cc(Cl)ccc2n1)c1ccc(C2(C(=O)O)CCCCC2)cc1` [Example 192, 1-(4-{[(6-chloroimidazo[1,2-a]pyridin-2-yl)amino]carbonyl}phenyl)cyclohexanecarboxylic acid], the melting point amounted to 288 °C. As for `CC(C)(C)c1ccc(C(=O)Nc2cn3cc(-n4cncn4)ccc3n2)cc1` [Example 469, 4-tert-butyl-N-[6-(1H-1,2,4-triazol-1-yl)imidazo[1,2-a]pyridin-2-yl]benzamide], the figure is 274 to 276 °C; as for `CC(C)(c1ccc(C(=O)Nc2cn3cc(Cl)ccc3n2)cc1)c1noc(=O)[nH]1` [Example 40, N-(6-chloroimidazo[1,2-a]pyridin-2-yl)-4-[1-methyl-1-(5-oxo-4,5-dihydro-1,2,4-oxadiazol-3-yl)ethyl]benzamide], 310 to 312 °C; as for `CC(C)(C)c1ccc(C(=O)Nc2cn3nc(NCc4ccccn4)ccc3n2)cc1` [Example 161, 4-tert-butyl-N-{6-[(pyridin-2-ylmethyl)amino]imidazo[1,2-b]pyridazin-2-yl}benzamide], 196 to 197 °C. As for `CC(C)(C)c1ccc(C(=O)Nc2cn3nc(NCc4ccncc4)ccc3n2)cc1` [Example 159, 4-tert-butyl-N-{6-[(pyridin-4-ylmethyl)amino]imidazo[1,2-b]pyridazin-2-yl}benzamide], the figure is 222 to 223 °C; as for `CC(C)(C)c1ccc(C(=O)Nc2cn3cc(-c4cn[nH]c4)ccc3n2)cn1` [Example 114, 6-tert-butyl-N-[6-(1H-pyrazol-4-yl)imidazo[1,2-a]pyridin-2-yl]nicotinamide], 238 to 240 °C. With `CC(C)(C)c1ccc(C(=O)Nc2cn3nc(NCc4cccnc4)ccc3n2)cc1` [Example 160, 4-tert-butyl-N-{6-[(pyridin-3-ylmethyl)amino]imidazo[1,2-b]pyridazin-2-yl}benzamide] the figure was 232 to 233 °C; with `Cc1ccc2nc(NC(=O)c3ccc(C(C)(C)CCC(=O)O)cc3)cn2c1` [Example 22, 4-methyl-4-{4-[(6-methylimidazo[1,2-a]pyridin-2-yl)carbamoyl]phenyl}pentanoic acid], 280 to 282 °C. For the molecule `Cn1cc(-c2ccc3nc(NC(=O)c4ccc(C(C)(C)C)cc4)cn3n2)cn1` [Example 173, 4-tert-butyl-N-[6-(1-methyl-1H-pyrazol-4-yl)imidazo[1,2-b]pyridazin-2-yl]benzamide], the melting point is 245 to 246 °C.

In turn, `CC(C)(C)c1ccc(C(=O)Nc2cn3cc(-c4ccsc4)ccc3n2)cc1` [Example 108, 4-tert-butyl-N-[6-(3-thienyl)imidazo[1,2-a]pyridin-2-yl]benzamide] had a melting point of 261 to 263 °C.

Molecule `CC(C)(C)c1ccc(C(=O)Nc2cn3cc(-c4cccnc4)ccc3n2)cn1` [Example 102, 6-tert-butyl-N-(6-(pyridin-3-yl)imidazo[1,2-a]pyridin-2-yl)nicotinamide] registered a melting point of 272 to 274 °C. Regarding `O=C(Nc1cn2cc(Cl)ccc2n1)c1ccc(C2(C(=O)O)CCCC2)cc1` [Example 191, 1-{4-[(6-chloroimidazo[1,2-a]pyridin-2-yl)carbamoyl]phenyl}cyclopentanecarboxylic acid], the melting point was 313 °C (dec.). With `CC(C)(C)c1ccc(C(=O)Nc2cn3cc(-c4ccc[nH]4)ccc3n2)cc1` [Example 62], the melting point was in the range of 279 to 280 °C.

Molecule `CC(=O)NCC(C)(C)c1ccc(C(=O)Nc2cn3cc(Cl)ccc3n2)cc1` [Example 122, 4-[2-(acetylamino)-1,1-dimethylethyl]-N-(6-chloroimidazo[1,2-a]pyridin-2-yl)benzamide] had a melting point of 220 to 222 °C. In the case of `CC(C)(C)c1ccc(C(=O)Nc2cn3nc(-n4cnc(CC#N)c4)ccc3n2)cc1` [Example 142, 4-tert-butyl-N-{6-[4-(cyanomethyl)-1H-imidazol-1-yl]imidazo[1,2-b]pyridazin-2-yl}benzamide], the melting point is 314 to 316 °C (dec.). With `CC(C)(C)c1ccc(C(=O)Nc2cn3cc(-c4ccncc4)ccc3n2)cc1` [Example 59, 4-tert-butyl-N-[6-(pyridin-4-yl)imidazo[1,2-a]pyridin-2-yl]benzamide] the figure was 293 to 294 °C; with `O=C(Nc1cn2cc(Cl)ccc2n1)c1ccc(-n2cccn2)cc1` [Example 95, N-(6-chloroimidazo[1,2-a]pyridin-2-yl)-4-(1H-pyrazol-1-yl)benzamide], 287 to 289 °C; with `CC(C)(C)c1ccc(C(=O)Nc2cn3nc(-n4cnc(Cl)c4Cl)ccc3n2)cc1` [Example 146, 4-tert-butyl-N-[6-(4,5-dichloro-1H-imidazol-1-yl)imidazo[1,2-b]pyridazin-2-yl]benzamide], 281 to 282 °C.

In the case of `CC(C)(CCC#N)c1ccc(C(=O)Nc2cn3cc(C(F)(F)F)ccc3n2)cc1` [Example 445, 4-(3-cyano-1,1-dimethylpropyl)-N-[6-(trifluoromethyl)imidazo[1,2-a]pyridin-2-yl]benzamide], the melting point lay in the range of 233 to 234 °C. In the case of `CC(C)(C#N)c1ccc(C(=O)Nc2cn3cc(Cl)ccc3n2)cc1` [Example 38, N-(6-chloroimidazo[1,2-a]pyridin-2-yl)-4-(1-cyano-1-methylethyl)benzamide], the melting point is 248 to 250 °C. `COC(=O)C(C)(C)c1ccc(C(=O)Nc2cn3cc(-c4ccoc4)ccc3n2)cc1` [Example 26, methyl 2-methyl-2-(4-{[6-(3-furyl)imidazo[1,2-a]pyridin-2-yl]carbamoyl}phenyl)propanoate]: the melting point lay in the range of 202 to 203 °C. With `CC(C)c1ncc(-c2ccc3nc(NC(=O)c4ccc(C(C)(C)C)cc4)cn3n2)[nH]1.Cl` the figure was 304 to 305 °C (dec.). Molecule `CC(C)(CCC#N)c1ccc(C(=O)Nc2cn3cc(-n4ccnc4)ccc3n2)cc1` [Example 45, 4-(3-cyano-1,1-dimethylpropyl)-N-[6-(1H-imidazol-1-yl)imidazo[1,2-a]pyridin-2-yl]benzamide] came in with a melting point of 233 to 234 °C. In the case of `COC(=O)C(C)(C)c1ccc(C(=O)Nc2cn3cc(I)ccc3n2)cc1` [Example 23, methyl 2-{4-[(6-iodoimidazo[1,2-a]pyridin-2-yl)carbamoyl]phenyl}-2-methylpropanoate], the melting point was 234 to 235 °C.
